Data as given in patent publication US20230348424A1, “HETEROCYCLIC COMPOUNDS AND METHODS OF USE” (Schrödinger, Inc., priority 2022, published 2023).

Key:
[1] = target: human SOS1 (Homo sapiens (Human), UniProt Q07889); test: Surface Plasmon Resonance (SPR) SOS1 Binding Assay; details: biotinylated SOS1 (res. 564-1049), Biacore 8K, 25° C., kinetic or steady state fit, 1:1 binding; read-out: hSOS1 KD
In short: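 Biotinylated Avi-tagged human SOS1 (res. 564-1049) captured on streptavidin chip (~3,000 RU); compounds injected 60 s, dissociation 600 s, at 25° C in Tris pH 8.0 buffer with 5% DMSO. Reference- and blank-subtracted; KD from kinetic or steady-state 1:1 binding fit.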

[2] = target: SOS1:KRAS (G12C) interaction (Homo sapiens (Human), UniProt Q07889); test: SOS1 KRas(G12C) FRET Assay; assay type: binding; details: 0.5 nM His10-SOS1 (res. 564-1049), 2.5 nM GST-KRAS G12C (res. 1-169), 2 hrs at RT
In short: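 GST-KRAS G12C (res. 1-169) at 2.5 nM and His10-SOS1 (res. 564-1049) at 0.5 nM, final, in PBS with 0.1% BSA, 5 mM MgCl2, 100 mM KF, 5 mM DTT and 0.5% DMSO. After 2 h at RT, FRET read at 665/615 nm and normalized to DMSO and no-SOS1 controls. IC50 by non-linear regression.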

human SOS1, sequence (Q07889 564-1049): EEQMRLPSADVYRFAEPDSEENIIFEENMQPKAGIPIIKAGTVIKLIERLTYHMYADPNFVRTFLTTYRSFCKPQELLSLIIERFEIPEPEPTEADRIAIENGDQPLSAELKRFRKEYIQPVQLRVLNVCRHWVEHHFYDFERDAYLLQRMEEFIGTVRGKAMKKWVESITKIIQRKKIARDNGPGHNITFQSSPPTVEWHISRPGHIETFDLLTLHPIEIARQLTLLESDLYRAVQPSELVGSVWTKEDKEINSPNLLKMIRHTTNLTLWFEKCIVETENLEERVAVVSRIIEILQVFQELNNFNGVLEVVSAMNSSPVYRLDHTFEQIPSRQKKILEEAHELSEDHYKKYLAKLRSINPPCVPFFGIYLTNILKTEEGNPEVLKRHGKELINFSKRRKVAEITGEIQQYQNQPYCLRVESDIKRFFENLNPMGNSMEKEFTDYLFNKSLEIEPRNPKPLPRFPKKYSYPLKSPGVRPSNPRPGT
SOS1:KRAS (G12C) interaction, sequence (Q07889 564-1049, stated change not applied): as the sequence (Q07889 564-1049) above

Compound	Kd [1]	IC50 [2]
Cc1c([C@@H](C)NC(=O)c2cn(C3CCOCC3)c(=O)cc2NC2CCN(CCF)CC2)cccc1C(F)(F)F [Example 16, (R)-4-((1-(2-fluoroethyl)piperidin-4-yl)amino)-N-(1-(2-methyl-3-(trifluoromethyl)phenyl)ethyl)-6-oxo-1-(tetrahydro-2H-pyran-4-yl)-1,6-dihydropyridine-3-carboxamide]	23 nM	29.4 nM
Cc1c([C@@H](C)NC(=O)c2cn(C3CCOCC3)c(=O)c(C#N)c2NC2CCN(C)CC2)cccc1C(F)(F)F [Example 20, (R)-5-cyano-N-(1-(2-methyl-3-(trifluoromethyl)phenyl)ethyl)-4-((1-methylpiperidin-4-yl)amino)-6-oxo-1-(tetrahydro-2H-pyran-4-yl)-1,6-dihydropyridine-3-carboxamide]	10.4 nM	22.7 nM
Cc1c([C@@H](C)NC(=O)c2cn(C3CCOCC3)c(=O)cc2NC2CC3(C2)CN(C)C3)cccc1C(F)(F)F [Example 21, (R)-4-((2-methyl-2-azaspiro[3.3]heptan-6-yl)amino)-N-(1-(2-methyl-3-(trifluoromethyl)phenyl)ethyl)-6-oxo-1-(tetrahydro-2H-pyran-4-yl)-1,6-dihydropyridine-3-carboxamide]	17 nM	53.7 nM
Cc1c([C@@H](C)NC(=O)c2cn(C3CCOCC3)c(=O)cc2N[C@H]2[C@@H]3CN(C)C[C@@H]32)cccc1C(F)(F)F [Example 26, N-((R)-1-(2-methyl-3-(trifluoromethyl)phenyl)ethyl)-4-(((1R,5S,6s)-3-methyl-3-azabicyclo[3.1.0]hexan-6-yl)amino)-6-oxo-1-(tetrahydro-2H-pyran-4-yl)-1,6-dihydropyridine-3-carboxamide]	11 nM	27.1 nM
COC1(CNc2cc(=O)n(C3CCOCC3)cc2C(=O)N[C@H](C)c2cccc(C(F)(F)F)c2C)CN(C)C1 [Example 29, (R)-4-(((3-methoxy-1-methylazetidin-3-yl)methyl)amino)-N-(1-(2-methyl-3-(trifluoromethyl)phenyl)ethyl)-6-oxo-1-(tetrahydro-2H-pyran-4-yl)-1,6-dihydropyridine-3-carboxamide]	11 nM	19.1 nM
Cc1c([C@@H](C)NC(=O)c2cn(C3CCOCC3)c(=O)cc2NC2CCOCC2)cccc1C(F)(F)F [Example 42, (R)-N-(1-(2-methyl-3-(trifluoromethyl)phenyl)ethyl)-6-oxo-1-(tetrahydro-2H-pyran-4-yl)-4-((tetrahydro-2H-pyran-4-yl)amino)-1,6-dihydropyridine-3-carboxamide]	186 nM	553 nM
Cc1c([C@@H](C)NC(=O)c2cn(C3CCOCC3)c(=O)cc2NC2(C)CCN(C)CC2)cccc1C(F)(F)F [Example 45, (R)-4-((1,4-dimethylpiperidin-4-yl)amino)-N-(1-(2-methyl-3-(trifluoromethyl)phenyl)ethyl)-6-oxo-1-(tetrahydro-2H-pyran-4-yl)-1,6-dihydropyridine-3-carboxamide]	21 nM	37.9 nM
C[C@@H](NC(=O)c1cn(C2(C(F)F)CC2)c(=O)cc1NC1CCN(C)CC1)c1cccc(C(F)F)c1F [Example 49, (R)-N-(1-(3-(difluoromethyl)-2-fluorophenyl)ethyl)-1-(1-(difluoromethyl)cyclopropyl)-4-((1-methylpiperidin-4-yl)amino)-6-oxo-1,6-dihydropyridine-3-carboxamide]	3 nM	13.5 nM
Cc1c([C@@H](C)NC(=O)c2cn(C3(C(F)F)CC3)c(=O)cc2NC2CCN(C)CC2)cccc1C(F)(F)F [Example 50, (R)-1-(1-(difluoromethyl)cyclopropyl)-N-(1-(2-methyl-3-(trifluoromethyl)phenyl)ethyl)-4-((1-methylpiperidin-4-yl)amino)-6-oxo-1,6-dihydropyridine-3-carboxamide]	8 nM	20.3 nM
C[C@@H](NC(=O)c1cn([C@@H]2CCOC[C@H]2F)c(=O)cc1NC1CCN(C)CC1)c1cccc(C(F)F)c1F [Example 79, N-((R)-1-(3-(difluoromethyl)-2-fluorophenyl)ethyl)-1-((3S,4R)-3-fluorotetrahydro-2H-pyran-4-yl)-4-((1-methylpiperidin-4-yl)amino)-6-oxo-1,6-dihydropyridine-3-carboxamide]	2 nM	3.7 nM
C[C@@H](NC(=O)c1cn([C@H]2CCOC[C@@H]2F)c(=O)cc1NC1CCN(C)CC1)c1cccc(C(F)F)c1F [Example 80, N-((R)-1-(3-(difluoromethyl)-2-fluorophenyl)ethyl)-1-((3R,4S)-3-fluorotetrahydro-2H-pyran-4-yl)-4-((1-methylpiperidin-4-yl)amino)-6-oxo-1,6-dihydropyridine-3-carboxamide]	8 nM	16.7 nM
C[C@@H](NC(=O)c1cn(C2(C(F)F)CC2)c(=O)cc1N[C@H]1CN2CCC1CC2)c1cccc(C(F)F)c1F [Example 83, N-((R)-1-(3-(difluoromethyl)-2-fluorophenyl)ethyl)-1-(1-(difluoromethyl)cyclopropyl)-6-oxo-4-(((R)-quinuclidin-3-yl)amino)-1,6-dihydropyridine-3-carboxamide]	20 nM	25.7 nM
C[C@@H](NC(=O)c1cn(C2(C(F)F)CC2)c(=O)cc1N[C@@H]1CN2CCC1CC2)c1cccc(C(F)F)c1F [Example 84, N-((R)-1-(3-(difluoromethyl)-2-fluorophenyl)ethyl)-1-(1-(difluoromethyl)cyclopropyl)-6-oxo-4-(((S)-quinuclidin-3-yl)amino)-1,6-dihydropyridine-3-carboxamide]	9 nM	10.2 nM
C[C@@H](NC(=O)c1cn(C2(C(F)F)CC2)c(=O)cc1NC[C@@H]1CC2CCN1CC2)c1cccc(C(F)F)c1F [Example 85, N-((R)-1-(3-(difluoromethyl)-2-fluorophenyl)ethyl)-1-(1-(difluoromethyl)cyclopropyl)-6-oxo-4-((((S)-quinuclidin-2-yl)methyl)amino)-1,6-dihydropyridine-3-carboxamide]	12 nM	26.1 nM
C[C@@H](NC(=O)c1cn(C2(C(F)F)CC2)c(=O)cc1NC[C@H]1CC2CCN1CC2)c1cccc(C(F)F)c1F [Example 86, N-((R)-1-(3-(difluoromethyl)-2-fluorophenyl)ethyl)-1-(1-(difluoromethyl)cyclopropyl)-6-oxo-4-((((R)-quinuclidin-2-yl)methyl)amino)-1,6-dihydropyridine-3-carboxamide]	29 nM	73.1 nM

The remaining lines, values ahead:

Kd [1]	IC50 [2]	Compound
8 nM	18.5 nM	C[C@@H](NC(=O)c1cn(C2(C(F)F)CC2)c(=O)cc1NC1CCN(C)CC1)c1cccc(C(C)(F)F)c1F [Example 51, (R)-N-(1-(3-(1,1-difluoroethyl)-2-fluorophenyl)ethyl)-1-(1-(difluoromethyl)cyclopropyl)-4-((1-methylpiperidin-4-yl)amino)-6-oxo-1,6-dihydropyridine-3-carboxamide]
6 nM	13.6 nM	C[C@@H](NC(=O)c1cn(C2(C(F)F)CC2)c(=O)cc1NC1CCN(C)CC1)c1cccc(C(F)(F)F)c1F [Example 52, (R)-1-(1-(difluoromethyl)cyclopropyl)-N-(1-(2-fluoro-3-(trifluoromethyl)phenyl)ethyl)-4-((1-methylpiperidin-4-yl)amino)-6-oxo-1,6-dihydropyridine-3-carboxamide]
34 nM	65 nM	C[C@@H](NC(=O)c1cn(C2(C(F)F)CC2)c(=O)cc1NCCN(C)C)c1cccc(C(F)F)c1F [Example 61, (R)-N-(1-(3-(difluoromethyl)-2-fluorophenyl)ethyl)-1-(1-(difluoromethyl)cyclopropyl)-4-((2-(dimethylamino)ethyl)amino)-6-oxo-1,6-dihydropyridine-3-carboxamide]
96 nM	174 nM	C[C@@H](NC(=O)c1cn(C2(C(F)F)CC2)c(=O)cc1NCCN1CCOCC1)c1cccc(C(F)F)c1F [Example 81, (R)-N-(1-(3-(difluoromethyl)-2-fluorophenyl)ethyl)-1-(1-(difluoromethyl)cyclopropyl)-4-((2-morpholinoethyl)amino)-6-oxo-1,6-dihydropyridine-3-carboxamide]
17 nM	26.3 nM	C[C@@H](NC(=O)c1cn(C2(C(F)F)CC2)c(=O)cc1NC1CCN(CCF)CC1)c1cccc(C(F)F)c1F [Example 82, (R)-N-(1-(3-(difluoromethyl)-2-fluorophenyl)ethyl)-1-(1-(difluoromethyl)cyclopropyl)-4-((1-(2-fluoroethyl)piperidin-4-yl)amino)-6-oxo-1,6-dihydropyridine-3-carboxamide]
84 nM	61.7 nM	C[C@H](Nc1cc(=O)n(C2(C(F)F)CC2)cc1C(=O)N[C@H](C)c1cccc(C(F)F)c1F)c1cncn1C [Example 87, N-((R)-1-(3-(difluoromethyl)-2-fluorophenyl)ethyl)-1-(1-(difluoromethyl)cyclopropyl)-4-(((S)-1-(1-methyl-1H-imidazol-5-yl)ethyl)amino)-6-oxo-1,6-dihydropyridine-3-carboxamide]
96 nM	87.3 nM	C[C@@H](NC(=O)c1cn(C2(C(F)F)CC2)c(=O)cc1N[C@H](C)c1cncn1C)c1cccc(C(F)F)c1F [Example 88, N-((R)-1-(3-(difluoromethyl)-2-fluorophenyl)ethyl)-1(1-(difluoromethyl)cyclopropyl)-4(((R)-1-(1-methyl-1H-imidazol-5-yl)ethyl)amino)-6-oxo-1,6-dihydropyridine-3-carboxamide]
